{
  "source": "patent US9066516B2",
  "about": "“Uses of thaxtomin and thaxtomin compositions as herbicides” (priority 2008, dated 2015)",
  "type_in_all_cases": "in vivo",
  "key": {"red stem": {"test_system": "red stem", "test": "Greenhouse test cyhalofop + thaxtomin A (Example 7)", "conditions": "Cyhalofop 6.5 oz/acre, no thx A; 21-day evaluation", "method": "(§1) Cyhalofop (2-[4-(4-cyano-2-fluorophenoxy)phenoxy]propanoic acid, butyl ester) is also mixed together with adjuvant containing ethyl oleate, polyethylene dialky ester and ethoxylated nonylphenol (2.5% v/v) and increasing concentrations of thaxtomin A (purified from the ATCC strain 49003) at concentrations 0.1, 0.2 and 0.4 mg/ml. The concentrations of the 2-[4-(4-cyano-fluorophenoxy)phenoxy]propanoic acid, butyl ester before dilution are 29.6% (2.38 lb/gal) and 21.7% (2 lb/gal), respectively. The effect of these mixtures on the growth of common water plantain, red stem, smallflower sedge and sprangletop is determined in the greenhouse. Similarly, rice plants of variety M104 are grown and tested for phytotoxic effects, and all plants are evaluated 7, 14, and 21 days after treatment."}, "smallflower sedge": {"test_system": "smallflower sedge", "test": "Greenhouse test cyhalofop + thaxtomin A (Example 7)", "conditions": "Cyhalofop 6.5 oz/acre, no thx A, 21-day evaluation", "method": "as §1"}, "common water plantain": {"test_system": "common water plantain", "test": "Greenhouse test cyhalofop + thaxtomin A (Example 7)", "conditions": "Cyhalofop 6.5 oz/acre, no thx A; 21-day evaluation", "method": "as §1"}, "sprangletop": {"test_system": "sprangletop", "test": "Greenhouse test cyhalofop + thaxtomin A (Example 7)", "conditions": "Cyhalofop 6.5 oz/acre, no thx A, 21-day evaluation", "method": "as §1"}, "broad-leaf mustard": {"test_system": "broad-leaf mustard", "test": "Greenhouse synergy test MBI-005 + commercial herbicides (Example 11)", "conditions": "cyhalofop 0.051 mg/mL, 14 days", "method": "(§2) The test species barnyard grass, ragweed, sedge, and broad-leaf mustard were used for the valuation of synergy between MBI-005 and the rice herbicides clomazone, penoxsulam, cyhalofop, fenoxaprop-p-ethyl, bispyribac-sodium, thiobencarb, and propanil.\n(§3) There were 3 replicates per treatment which were sprayed with approximately ⅔ ml per replicate. The treatments were completely randomized and kept in a greenhouse at 25° C. The efficacy was rated at 7 and 14 days post treatment."}, "sedge": {"test_system": "sedge", "test": "Greenhouse synergy test MBI-005 + commercial herbicides (Example 11)", "conditions": "cyhalofop 1.176 mg/mL, 14 days", "method": "as §2, §3"}},
  "data": [
    {"smiles": "CCCCOC(=O)C(C)Oc1ccc(Oc2ccc(C#N)cc2F)cc1", "note": "(centres unmarked) [Cyhalofop, 2-[4-(4-cyano-2-fluorophenoxy)phenoxy]propanoic acid, butyl ester]", "values": [
      {"measurement": "Redstem % control", "setting": "red stem", "value": 75, "unit": "%"},
      {"measurement": "Sedge % control", "setting": "smallflower sedge", "value": 0, "unit": "%"},
      {"measurement": "Sedge % control", "setting": "smallflower sedge; listed as Clincher CA", "value": "poor on sedges"},
      {"measurement": "Waterplantain % control", "setting": "common water plantain", "value": 8, "unit": "%"},
      {"measurement": "Sprangletop % control", "setting": "sprangletop", "value": 90, "unit": "%"},
      {"measurement": "Sprangletop % control", "setting": "sprangletop; listed as Clincher CA", "value": "good efficacy against grass weeds"},
      {"measurement": "% Control Product", "setting": "broad-leaf mustard", "value": 11.7, "unit": "%"},
      {"measurement": "% Control Product", "setting": "sedge", "value": 3.3, "unit": "%"}
    ]}
  ]
}
